The results in this text go back to patent US8163781B2, “Bi-aryl aminotetralines” (Hoffman-La Roche Inc., priority 2008, dated 2012).

The structures appear in SMILES notation.

The experiment concerns the target T1, human CRTH2 (Homo sapiens, UniProt Q9Y5Y4).
T1 construct: expressed in transfected cells
T1 sequence (Q9Y5Y4 1-395): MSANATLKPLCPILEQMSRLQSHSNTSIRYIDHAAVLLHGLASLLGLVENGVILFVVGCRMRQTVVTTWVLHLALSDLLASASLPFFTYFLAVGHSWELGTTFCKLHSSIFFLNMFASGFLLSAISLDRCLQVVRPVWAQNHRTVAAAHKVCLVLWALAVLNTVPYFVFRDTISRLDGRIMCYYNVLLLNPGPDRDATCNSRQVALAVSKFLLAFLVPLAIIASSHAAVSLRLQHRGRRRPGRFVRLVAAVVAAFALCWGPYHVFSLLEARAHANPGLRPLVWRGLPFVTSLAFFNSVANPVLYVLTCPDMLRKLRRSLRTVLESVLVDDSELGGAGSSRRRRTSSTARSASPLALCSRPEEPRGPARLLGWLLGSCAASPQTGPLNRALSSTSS
Put plainly: Human CRTH2 Receptor Binding Assay. As to conditions: whole cell binding, CHO-K1 cells expressing human CRTH2, 20 nM [3H]ramatroban as competing radioligand. An excerpt: A whole cell receptor binding assay using [^3H]ramatroban as the competing radioactive ligand was employed to evaluate the compound binding activity to human CRTH2. The radioactive ligand [^3H]ramatroban was synthesized according to Sugimoto et. al. (Eur. J. Pharmacol. 524, 30-37, 2005) to a specific activity of 42 Ci/mmol.
A cell line stably expressing human CRTH2 was established by transfecting CHO-K1 cells with two mammalian expression vectors that harbored human CRTH2 and G-alpha16 cDNAs, respectively, using FuGene® 6 transfection reagent (from Roche). Stable clones expressing CRTH2 were selected by staining each clone with BM16 (BD Pharmingen™ from BD Biosciences, a division of Becton, Dickinson and Company), which is a rat monoclonal antibody to human CRTH2. The cells were maintained as monolayer cultures in Ham's F-12 medium containing 10% fetal bovine serum, 100 units/mL penicillin, 100 μg/mL streptomycin, 2 mM glutamine, 0.5 mg/mL G418 (geneticin) for CRTH2, and 0.2 mg/mL hygromycin-B (for G-alpha 16). For whole cell receptor binding assay, the monolayer cells were rinsed once with PBS (phosphate buffered saline), dissociated using ethylenediaminetetraacetate (Versene™ EDTA from the Lonza Inc.), and suspended in PBS containing 10 mM MgCl2 and 0.06% BSA (bovine serum albumin) at 1.5×10^6 cells/mL.
The binding reactions (0.2 mL) were performed in 96-well plates at room temperature in PBS containing 1.5×10^5 cells, 10 mM MgCl2, 0.06% BSA, 20 nM [^3H]ramatroban, and test compound at various concentrations. After 1 hour of binding reactions, the cells were harvested on GF™/B filter microplates (microtiter plates with embedded glass fiber from PerkinElmer, Inc.) and washed 5 times with PBS using a Filtermate™ Harvester (a cell harvester that harvests and washes cells from microplates from PerkinElmer, Inc.). The radioactivities bound to the cells were determined using a microplate scintillation counter (TopCount® NXT, from PerkinElmer, Inc.) after adding 50 μL of Microscint™ 20 scintillation fluid (from PerkinElmer, Inc.) to each well of the filter plates. The radioactivity from non-specific binding was determined by replacing compound with 10 μM of 15(R)-15-methyl PGD2 (from Cayman Chemical Company) in the reaction mixtures. The radioactivity bound to the cells in the absence of compound (total binding) was determined by replacing compound with 0.25% of DMSO (dimethyl sulfoxide) in the reaction mixture. Specific binding data were obtained by subtracting the radioactivity of non-specific binding from each binding data.
The IC50 value is defined as the concentration of the tested compound that is required for 50% inhibition of total specific binding. In order to calculate the IC50 value, the percent inhibition data were determined for 7 concentrations for each compound. The percent inhibition for a compound at each concentration was calculated according to the following formula, [1-(specific binding in the presence of compound)/(total specific binding)]×100. The IC50 value was then obtained by fitting the percent inhibition data to a sigmoidal dose-response (4 parameter logistic) model in the XLfit® software Excel add-in program [from ID Business Solutions Ltd., model 205, where F(x)=(A+(B−A)/(1+((C/x)^D)))].
Consider `O=C(O)COc1cccc2c1CCC[C@H]2NS(=O)(=O)c1ccc(-c2ccc(F)cc2)cc1` [Example 1-7, [(R)-5-(4′-Fluoro-biphenyl-4-sulfonylamino)-5,6,7,8-tetrahydro-naphthalen-1-yloxy]-acetic acid], for which the IC50 came out at 52.6 nM.
For `Cc1cc(-c2ccc(S(=O)(=O)N[C@@H]3CCCc4c(OCC(=O)O)cccc43)nc2)cc(C(C)(C)C)c1` [Example 3-48, {(R)-5-[5-(3-tert-Butyl-5-methyl-phenyl)-pyridine-2-sulfonylamino]-5,6,7,8-tetrahydro-naphthalen-1-yloxy}-acetic acid], the IC50 was 4.8 nM.
Then `Cc1ccc(-c2ccc(S(=O)(=O)N[C@@H]3CCCc4c(OCC(=O)O)cccc43)cc2)cc1` [Example 1-2, [(R)-5-(4′-Methyl-biphenyl-4-sulfonylamino)-5,6,7,8-tetrahydro-naphthalen-1-yloxy]-acetic acid], with 51.6 nM.
In the case of `CC(C)c1cccc(Oc2ncc(S(=O)(=O)NC3CCCc4c(OCC(=O)O)cccc43)cc2Br)c1` (centres unmarked) [Example 2-9, {5-[5-Bromo-6-(3-isopropyl-phenoxy)-pyridine-3-sulfonylamino]-5,6,7,8-tetrahydro-naphthalen-1-yloxy}-acetic acid], the IC50 is 21.2 nM.
In the case of `O=C(O)COc1cccc2c1CCC[C@H]2NS(=O)(=O)c1ccc(Oc2ccc(F)cc2)c(C(F)(F)F)c1` [Example 2-42, {(R)-5-[4-(4-Fluoro-phenoxy)-3-trifluoromethyl-benzenesulfonylamino]-5,6,7,8-tetrahydro-naphthalen-1-yloxy}-acetic acid] it was 11.2 nM; in that of `O=C(O)COc1cccc2c1CCCC2NS(=O)(=O)c1cnc(Oc2ccc3c(c2)CCC3)c(Br)c1` (centres unmarked) [Example 2-17, {5-[5-Bromo-6-(indan-5-yloxy)-pyridine-3-sulfonylamino]-5,6,7,8-tetrahydro-naphthalen-1-yloxy}-acetic acid], 115 nM.
In the case of `O=C(O)COc1cccc2c1CCC[C@H]2NS(=O)(=O)c1ccc(-c2ccc(Cl)cc2)cc1` [Example 1-9, [(R)-5-(4′-Chloro-biphenyl-4-sulfonylamino)-5,6,7,8-tetrahydro-naphthalen-1-yloxy]-acetic acid] it was 84.1 nM.
In the case of `CN(C)C(=O)c1ccc(-c2ccc(S(=O)(=O)N[C@@H]3CCCc4c(OCC(=O)O)cccc43)cc2)cc1` [Example 3-30, [(R)-5-(4′-Dimethylcarbamoyl-biphenyl-4-sulfonylamino)-5,6,7,8-tetrahydro-naphthalen-1-yloxy]-acetic acid], the IC50 was determined as 67.1 nM.
The compound `O=C(O)COc1cccc2c1CCCC2NS(=O)(=O)c1cccc(Oc2ccccc2)c1` (centres unmarked) [Example 1-3, [5-(3-Phenoxy-benzenesulfonylamino)-5,6,7,8-tetrahydro-naphthalen-1-yloxy]-acetic acid] yielded a half-inhibitory concentration (IC50) of 200 nM.
Then `CS(=O)(=O)c1cncc(-c2ccc(S(=O)(=O)NC3CCCc4c(OCC(=O)O)cccc43)cc2)c1` (centres unmarked) [Example 3-16, {5-[4-(5-Methanesulfonyl-pyridin-3-yl)-benzenesulfonylamino]-5,6,7,8-tetrahydro-naphthalen-1-yloxy}-acetic acid], with 20.3 nM; and `O=C(O)COc1cccc2c1CCCC2NS(=O)(=O)c1cnc(Oc2ccc(F)cc2Cl)c(Br)c1` (centres unmarked) [Example 2-1, {5-[5-Bromo-6-(2-chloro-4-fluoro-phenoxy)-pyridine-3-sulfonylamino]-5,6,7,8-tetrahydro-naphthalen-1-yloxy}-acetic acid], with 76.4 nM.
Then `N#Cc1cccc(Oc2ncc(S(=O)(=O)NC3CCCc4c(OCC(=O)O)cccc43)cc2Br)c1` (centres unmarked) [Example 2-6, {5-[5-Bromo-6-(3-cyano-phenoxy)-pyridine-3-sulfonylamino]-5,6,7,8-tetrahydro-naphthalen-1-yloxy}-acetic acid], with 60.3 nM; and `CN([C@@H]1CCCc2c(OCC(=O)O)cccc21)S(=O)(=O)c1cc(C(F)(F)F)cc(S(=O)(=O)c2ccc(Cl)cc2)c1` [Example 8-1, ((R)-5-{[3-(4-Chloro-benzenesulfonyl)-5-trifluoromethyl-benzenesulfonyl]-methyl-amino}-5,6,7,8-tetrahydro-naphthalen-1-yloxy)-acetic acid], with 2.9 nM.
Take `Cc1cc(C)cc(Oc2ncc(S(=O)(=O)NC3CCCc4c(OCC(=O)O)cccc43)cc2Br)c1` (centres unmarked) [Example 2-15, {5-[5-Bromo-6-(3,5-dimethyl-phenoxy)-pyridine-3-sulfonylamino]-5,6,7,8-tetrahydro-naphthalen-1-yloxy}-acetic acid]: the half-maximal inhibitory concentration (IC50) is 75.2 nM.
Then `CC(=O)c1ccc(-c2ccc(S(=O)(=O)N[C@@H]3CCCc4c(OCC(=O)O)cccc43)cc2)cc1` [Example 1-10, [(R)-5-(4′-Acetyl-biphenyl-4-sulfonylamino)-5,6,7,8-tetrahydro-naphthalen-1-yloxy]-acetic acid], with 67.4 nM.
Then `O=C(O)COc1cccc2c1CCC[C@H]2NS(=O)(=O)c1ccc(-c2cccc([N+](=O)[O-])c2)cc1` [Example 3-41, [(R)-5-(3′-Nitro-biphenyl-4-sulfonylamino)-5,6,7,8-tetrahydro-naphthalen-1-yloxy]-acetic acid], with 23.9 nM; and `Cc1cccc(-c2ccc(S(=O)(=O)NC3CCCc4c(OCC(=O)O)cccc43)cc2)n1` (centres unmarked) [Example 3-9, {5-[4-(6-Methyl-pyridin-2-yl)-benzenesulfonylamino]-5,6,7,8-tetrahydro-naphthalen-1-yloxy}-acetic acid], with 74.9 nM; and `CN([C@@H]1CCCc2c(OCC(=O)O)cccc21)S(=O)(=O)c1ccc(Oc2ccc(Cl)cc2)c(Cl)c1` [Example 6-1, ((R)-5-{[3-Chloro-4-(4-chloro-phenoxy)-benzenesulfonyl]-methyl-amino}-5,6,7,8-tetrahydro-naphthalen-1-yloxy)-acetic acid], with 147 nM.
Then `O=C(O)COc1cccc2c1CCCC2NS(=O)(=O)c1ccc(-c2ccc(OC(F)(F)F)cc2)cn1` (centres unmarked) [Example 3-62, {5-[5-(4-Trifluoromethoxy-phenyl)-pyridine-2-sulfonylamino]-5,6,7,8-tetrahydro-naphthalen-1-yloxy}-acetic acid], with 70.7 nM.
Turning to `O=C(O)COc1cccc2c1CCCC2NS(=O)(=O)c1cnc(Oc2ccc(CCO)cc2)c(Br)c1` (centres unmarked) [Example 2-22, (5-{5-Bromo-6-[4-(2-hydroxy-ethyl)-phenoxy]-pyridine-3-sulfonylamino}-5,6,7,8-tetrahydro-naphthalen-1-yloxy)-acetic acid], the IC50 is 31.7 nM.
In the case of `O=C(O)COc1cccc2c1CCC[C@H]2NS(=O)(=O)c1ccc(Oc2ccc(Cl)cc2)c(Cl)c1` [Example 2-2, {(R)-5-[3-Chloro-4-(4-chloro-phenoxy)-benzenesulfonylamino]-5,6,7,8-tetrahydro-naphthalen-1-yloxy}-acetic acid] it was 10.2 nM; in that of `O=C(O)COc1cccc2c1CCCC2NS(=O)(=O)c1ccc(-c2cccnc2F)cc1` (centres unmarked) [Example 3-3, {5-[4-(2-Fluoro-pyridin-3-yl)-benzenesulfonylamino]-5,6,7,8-tetrahydro-naphthalen-1-yloxy}-acetic acid], 203 nM; in that of `C[S+]([O-])c1cccc(-c2ccc(S(=O)(=O)N[C@@H]3CCCc4c(OCC(=O)O)cccc43)cc2)c1` (stereo partly drawn) [Example 4-1, [(R)-5-(3′-Methanesulfinyl-biphenyl-4-sulfonylamino)-5,6,7,8-tetrahydro-naphthalen-1-yloxy]-acetic acid], 13.5 nM.
